The record followed here is US11731986B2 (Sanford Burnham Prebys Medical Discovery Institute, priority 2017, dated 2023).

The structures appear in SMILES notation.

The assay addresses T1, human LMPTP-A (Homo sapiens, UniProt P24666).
T1 sequence (P24666 1-158): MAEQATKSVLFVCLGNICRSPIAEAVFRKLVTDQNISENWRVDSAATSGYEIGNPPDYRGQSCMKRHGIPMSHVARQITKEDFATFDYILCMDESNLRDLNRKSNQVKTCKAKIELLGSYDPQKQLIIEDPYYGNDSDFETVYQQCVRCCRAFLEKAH
Put plainly: Enzyme Assay of Inhibition of LMPTP-A (phosphatase assay, OMFP or pNPP substrate). The format is biochemical. As to conditions: Bis-Tris pH 6.0, 37° C. The procedure:
Phosphatase assays were performed in buffer containing 50 mM Bis-Tris, pH 6.0, 1 mM DTT and 0.01% Triton X-100 at 37° C. For assays conducted with 3-O-methylfluorescein phosphate (OMFP) as substrate, fluorescence was monitored continuously at λex=485 and λem=525 nm. For assays conducted with para-nitrophenylphosphate (pNPP) as substrate, the reaction was stopped by addition of 2× reaction volume of 1 M NaOH, and absorbance was measured at 405 nm. IC50 values of compounds of Formula (I), (II), (III), or (IV) were determined from plots of inhibitor concentration versus percentage of enzyme activity. For inhibitor selectivity assays, each PTP was incubated with either 0.4 mM OMFP or 5 mM pNPP in the presence of 40 μM compound or DMSO. […] For the inhibitor reversibility assay, 50 nM human LMPTP-A was pre-incubated with 10 μM of compound of Formula (I), (II), (III), or (IV) or DMSO for 5 min. The enzyme was diluted 100× in phosphatase assay buffer containing 0.4 mM OMFP and fluorescence was measured at the indicated time points.

For `CCN(CC)C(=O)c1ccc(-c2cc(NCCN3CCS(=O)(=O)CC3)c3cnccc3n2)cc1` [4-(4-((2-(1,1-Dioxidothiomorpholino)ethyl)amino)-1,6-naphthyridin-2-yl)-N,N-diethylbenzamide], the IC50 (usually the concentration that inhibits the measured activity by half) was in the range of 1 to 20 µM. `CCN(CC)C(=O)c1ccc(-c2cc(NCCN(C)C)c3cnccc3n2)cc1` [4-(4-((2-(Dimethylamino)ethyl)amino)-1,6-naphthyridin-2-yl)-N,N-diethylbenzamide] registered an IC50 of 1 to 20 µM. In turn, `CCN(CC)C(=O)c1ccc(-c2cc(NCCCN3CCS(=O)(=O)CC3)c3cnccc3n2)cc1` [4-(4-((3-(1,1-Dioxidothiomorpholino)propyl)amino)-1,6-naphthyridin-2-yl)-N,N-diethylbenzamide] showed a concentration for half-maximal inhibition (IC50) of 1 to 20 µM. `O=C(NCCc1ccncc1)c1ccc(-c2cc(NCCCN3CCCCC3)c3cnccc3n2)cc1` [4-(4-((3-(piperidin-1-yl)propyl)amino)-1,6-naphthyridin-2-yl)-N-(2-(pyridin-4-yl)ethyl)benzamide] yielded a 50% inhibitory concentration (IC50) not above 1 µM. Take `O=C(NC1CCNCC1)c1ccc(-c2cc(NCCCN3CCCCC3)c3cnccc3n2)c(C(F)(F)F)c1` [4-(4-((3-(piperidin-1-yl)propyl)amino)-1,6-naphthyridin-2-yl)-N-(piperidin-4-yl)-3-(trifluoromethyl)benzamide]: the half-inhibitory concentration (IC50) was 1 to 20 µM. With `O=C(NC1CCNCC1)c1ccc(-c2cc(NCCCN3CCCCC3)c3cnccc3n2)cc1` [4-(4-((3-(piperidin-1-yl)propyl)amino)-1,6-naphthyridin-2-yl)-N-(piperidin-4-yl)benzamide], the IC50 is not above 1 µM. Regarding `O=C(O)c1ccc(-c2cc(NCCCN3CCCCC3)c3cnccc3n2)cc1` [4-(4-((3-(piperidin-1-yl)propyl)amino)-1,6-naphthyridin-2-yl)benzoic acid], the concentration for half-maximal inhibition (IC50) is not above 1 µM.

For `CCN(CC)C(=O)c1ccc(-c2cc(NCCCN3CCCCC3)c3cncc(Br)c3n2)cc1` [4-(8-Bromo-4-((3-(piperidin-1-yl)propyl)amino)-1,6-naphthyridin-2-yl)-N,N-diethylbenzamide], the half-maximal inhibitory concentration (IC50) was not below 20 µM. The compound `CN1CCC(NC(=O)c2ccc(-c3cc(NCCCN4CCCCC4)c4cncc(Br)c4n3)cc2)CC1` [4-(8-Bromo-4-((3-(piperidin-1-yl)propyl)amino)-1,6-naphthyridin-2-yl)-N-(1-methylpiperidin-4-yl)benzamide] yielded a concentration for half-maximal inhibition (IC50) not below 20 µM. In the case of `Cc1cncc2c(NCCCN3CCCCC3)cc(-c3ccc(C(=O)NC4CCN(C)CC4)cc3)nc12` [4-(8-Methyl-4-((3-(piperidin-1-yl)propyl)amino)-1,6-naphthyridin-2-yl)-N-(1-methylpiperidin-4-yl)benzamide] it was not below 20 µM.

Take `Cc1cncc2c(NCCCN3CCCCC3)cc(-c3ccc(C(=O)NCCCN4CCCCC4)cc3)nc12` [4-(8-Methyl-4-((3-(piperidin-1-yl)propyl)amino)-1,6-naphthyridin-2-yl)-N-(3-(piperidin-1-yl)propyl)benzamide]: the half-maximal inhibitory concentration (IC50) is not below 20 µM. Consider `N#Cc1c(-c2cc(NCCCN3CCCCC3)c3cnccc3n2)ccc2[nH]c(C(=O)NC3CCNCC3)nc12` [4-cyano-5-(4-((3-(piperidin-1-yl)propyl)amino)-1,6-naphthyridin-2-yl)-N-(piperidin-4-yl)-1H-benzo[d]imidazole-2-carboxamide], for which the IC50 lay within 1 to 20 µM. Turning to `O=C(NCCc1ccncc1)c1nc2cc(-c3cc(NCCCN4CCCCC4)c4cnccc4n3)ccc2[nH]1` [5-(4-((3-(piperidin-1-yl)propyl)amino)-1,6-naphthyridin-2-yl)-N-(2-(pyridin-4-yl)ethyl)-1H-benzo[d]imidazole-2-carboxamide], the IC50 is not above 1 µM. `O=C(NC1CCNCC1)c1nc2cc(-c3cc(NCCCN4CCCCC4)c4cnccc4n3)ccc2[nH]1` [5-(4-((3-(piperidin-1-yl)propyl)amino)-1,6-naphthyridin-2-yl)-N-(piperidin-4-yl)-1H-benzo[d]imidazole-2-carboxamide] yielded an IC50 not above 1 µM. On to `CCNc1cc(-c2ccc3c(c2)cc(C(=O)NC2CCN(C)CC2)n3C)nc2ccncc12` [5-(4-(ethylamino)-1,6-naphthyridin-2-yl)-1-methyl-N-(1-methylpiperidin-4-yl)-1H-indole-2-carboxamide], for which the IC50 was not above 1 µM. As for `CCNc1cc(-c2ccc3[nH]c(C(=O)NCCCN4CCCCC4)nc3c2)nc2ccncc12` [5-(4-(ethylamino)-1,6-naphthyridin-2-yl)-N-(3-(piperidin-1-yl)propyl)-1H-benzo[d]imidazole-2-carboxamide], the IC50 lay within 1 to 20 µM. Then `CNc1cc(-c2ccc3[nH]c(C(=O)NCCCN4CCCCC4)nc3c2)nc2ccncc12` [5-(4-(methylamino)-1,6-naphthyridin-2-yl)-N-(3-(piperidin-1-yl)propyl)-1H-benzo[d]imidazole-2-carboxamide], with 1 to 20 µM; and `COc1cc(-c2ccc3c(c2)cc(C(=O)NC2CCN(C)CC2)n3C)nc2ccncc12` [5-(4-methoxy-1,6-naphthyridin-2-yl)-1-methyl-N-(1-methylpiperidin-4-yl)-1H-indole-2-carboxamide], with not below 20 µM.

`O=C(NC1CCNCC1)c1cc2ccc(-c3cc(NCCCN4CCCCC4)c4cnccc4n3)cc2[nH]1` [6-(4-(3-(Piperidin-1-yl)propylamino)-1,6-naphthyridin-2-yl)-N-(piperidin-4-yl)-1H-indole-2-carboxamide] returned an IC50 of 1 to 20 µM. On to `O=C(NC1CCNCC1)c1cc2ccc(-c3cc(NCCCN4CCCCC4)c4cnccc4n3)cc2s1` [6-(4-(3-(piperidin-1-yl)propylamino)-1,6-naphthyridin-2-yl)-N-(piperidin-4-yl)benzo[b]thiophene-2-carboxamide], for which the concentration for half-maximal inhibition (IC50) is not above 1 µM. In the case of `CN1CCC(Nc2cc(-c3ccc4c(c3)cc(C(=O)N3CCN(C)CC3)n4C)nc3ccncc23)CC1` [(1-Methyl-5-(4-((1-methylpiperidin-4-yl)amino)-1,6-naphthyridin-2-yl)-1H-indol-2-yl)(4-methylpiperazin-1-yl)methanone] it was not above 1 µM. With `CCN1CCN(C(=O)c2nc3cc(-c4cc(NCCCN5CCCCC5)c5cnccc5n4)ccc3n2CC)CC1` [(1-ethyl-5-(4-((3-(piperidin-1-yl)propyl)amino)-1,6-naphthyridin-2-yl)-1H-benzo[d]imidazol-2-yl)(4-ethylpiperazin-1-yl)methanone], the IC50 is not above 1 µM. Compound `CN1CCN(C(=O)c2cc3cc(-c4cc(NCc5ccc(CN6CCCCC6)cc5)c5cnccc5n4)ccc3n2C)CC1` [(1-methyl-5-(4-(4-(piperidin-1-ylmethyl)benzylamino)-1,6-naphthyridin-2-yl)-1H-indol-2-yl)(4-methylpiperazin-1-yl)methanone] registered a half-inhibitory concentration (IC50) not above 1 µM. In the case of `CCN1CCN(C(=O)c2cc3ccc(-c4cc(NCCCN5CCCCC5)c5cnccc5n4)cc3[nH]2)CC1` [(4-Ethylpiperazin-1-yl)(6-(4-(3-(piperidin-1-yl)propylamino)-1,6-naphthyridin-2-yl)-1H-indol-2-yl)methanone] it was not above 1 µM; in that of `CCN1CCN(C(=O)c2nc3cc(-c4cc(NCCCN5CCCCC5)c5cnccc5n4)ccc3[nH]2)CC1` [(4-ethylpiperazin-1-yl)(5-(4-((3-(piperidin-1-yl)propyl)amino)-1,6-naphthyridin-2-yl)-1H-benzo[d]imidazol-2-yl)methanone], not above 1 µM; in that of `CCN1CCN(C(=O)c2nc3cc(-c4cc(Nc5ccc(CN6CCCC6)cc5)c5cnccc5n4)ccc3[nH]2)CC1` [(4-ethylpiperazin-1-yl)(5-(4-((4-(pyrrolidin-1-ylmethyl)phenyl)amino)-1,6-naphthyridin-2-yl)-1H-benzo[d]imidazol-2-yl)methanone], not below 20 µM. `CCN1CCN(C(=O)c2cc3ccc(-c4cc(NCCCN5CCCCC5)c5cnccc5n4)cc3s2)CC1` [(4-ethylpiperazin-1-yl)(6-(4-(3-(piperidin-1-yl)propylamino)-1,6-naphthyridin-2-yl)benzo[b]thiophen-2-yl)methanone]: the IC50 was 1 to 20 µM. In the case of `CN1CCN(C(=O)c2cc3ccc(-c4cc(NCCCN5CCCCC5)c5cnccc5n4)cc3s2)CC1` [(4-methylpiperazin-1-yl)(6-(4-(3-(piperidin-1-yl)propylamino)-1,6-naphthyridin-2-yl)benzo[b]thiophen-2-yl)methanone] it was not above 1 µM; in that of `O=C(O)/C=C/c1ccc(-c2cc(NCCCN3CCCCC3)c3cnccc3n2)s1` [(E)-3-(5-(4-(3-(Piperidin-1-yl)propylamino)-1,6-naphthyridin-2-yl)thiophen-2-yl)acrylic acid], 1 to 20 µM; in that of `CCN(CC)C(=O)/C=C/c1ccc(-c2cc(Nc3ccc(CN4CCCC4)cc3)c3cnccc3n2)cc1` [(E)-N,N-Diethyl-3-(4-(4-((4-(pyrrolidin-1-ylmethyl)phenyl)amino)-1,6-naphthyridin-2-yl)phenyl)acrylamide], 1 to 20 µM. Regarding `CCN(CC)C(=O)/C=C/c1ccc(-c2cc(NCCCN3CCCCC3)c3cnccc3n2)s1` [(E)-N,N-Diethyl-3-(5-(4-(3-(piperidin-1-yl)propylamino)-1,6-naphthyridin-2-yl)thiophen-2-yl)acrylamide], the half-maximal inhibitory concentration (IC50) is not below 20 µM. The compound `CCN(CC)C(=O)/C=C/c1ccc(-c2cc(NCCCN3CCCCC3)c3cnccc3n2)o1` [(E)-N,N-Diethyl-3-(5-(4-((3-(piperidin-1-yl)propyl)amino)-1,6-naphthyridin-2-yl)furan-2-yl)acrylamide] gave a 50% inhibitory concentration (IC50) of 1 to 20 µM.
